# Patent US7928060B2, “Amylin family polypeptide-6 (AFP-6) analogs and methods of making and using them” (Amylin Pharmaceuticals, Inc., priority 2004, dated 2011)
# Key:
# amylin receptors = target: T1, amylin receptors (Rattus norvegicus, UniProt P32214); assay: amylin radioligand binding assay (125I-rat amylin, nucleus accumbens membranes); conditions: FIG. 10
# T1 construct: This basal forebrain tissue, containing the nucleus accumbens and surrounding regions, was weighed and homogenized; from tissue; host or cells: rat basal forebrain (nucleus accumbens) membranes, male Sprague-Dawley rats
# T1 sequence (P32214 25-516): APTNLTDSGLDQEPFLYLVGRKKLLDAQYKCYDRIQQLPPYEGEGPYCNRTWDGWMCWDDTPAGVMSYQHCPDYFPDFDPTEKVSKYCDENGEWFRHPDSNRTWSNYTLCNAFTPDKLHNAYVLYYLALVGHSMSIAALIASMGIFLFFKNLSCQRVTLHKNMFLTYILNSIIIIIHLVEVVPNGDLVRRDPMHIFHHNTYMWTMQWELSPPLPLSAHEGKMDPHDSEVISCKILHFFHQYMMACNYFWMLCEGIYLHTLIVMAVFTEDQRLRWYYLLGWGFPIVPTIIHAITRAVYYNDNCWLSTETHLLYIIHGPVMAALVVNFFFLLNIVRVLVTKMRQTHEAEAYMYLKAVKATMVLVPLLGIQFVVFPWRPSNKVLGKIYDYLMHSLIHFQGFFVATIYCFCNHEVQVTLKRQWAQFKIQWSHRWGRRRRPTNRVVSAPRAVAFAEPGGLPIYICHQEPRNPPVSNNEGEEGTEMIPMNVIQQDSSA
# Outline: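 Membranes from male Sprague-Dawley rat brain region rostral to hypothalamus, washed and resuspended in 20 mM HEPES with 0.2 mM PMSF. Incubation 60 min at 2 C, then filtration with cold PBS washes.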
# rats = assay: telemetry of cardiovascular parameters in conscious rats; assay type: in vivo, rat; conditions: 10 nmol/kg intravenous
# Description: Telemetry allows for real-time hemodynamic readings including arterial pressure, heart rate, arterial dP/dt, ECG (with waveform intervals) and core temperature via an implanted radio transmitter in conscious, non-anesthetized, unrestrained rats. […] Remote intravenous dosing is achieved through in-dwelling vascular access ports.
# [1] = plasma ionized calcium in rats; assay type: in vivo, rat; conditions: subcutaneous, samples of Example 4
# Experimental: Using the samples obtained from Example 4, ionized calcium was measured in plasma samples obtained from gastric emptying experiments described above, using an ion selective electrode, Ciba/Corning 634 Ca/pH analyzer (Ciba/Corning, Inc., Medfield, Mass.).
# adrenomedullin receptor [2] = conditions: bovine studies; cited from earlier work
# adrenomedullin receptor [3] = target: adrenomedullin receptor (Homo sapiens, UniProt O60895+Q16602); assay: cAMP production in HUVECs (AlphaScreen); assay type: cell-based; set-up: tested for bioactivity in HUVECs that contain the adrenomedullin receptor; endogenous in cells; host or cells: HUVEC
# adrenomedullin receptor (Homo sapiens, UniProt O60895+Q16602), sequence (Q16602 23-461): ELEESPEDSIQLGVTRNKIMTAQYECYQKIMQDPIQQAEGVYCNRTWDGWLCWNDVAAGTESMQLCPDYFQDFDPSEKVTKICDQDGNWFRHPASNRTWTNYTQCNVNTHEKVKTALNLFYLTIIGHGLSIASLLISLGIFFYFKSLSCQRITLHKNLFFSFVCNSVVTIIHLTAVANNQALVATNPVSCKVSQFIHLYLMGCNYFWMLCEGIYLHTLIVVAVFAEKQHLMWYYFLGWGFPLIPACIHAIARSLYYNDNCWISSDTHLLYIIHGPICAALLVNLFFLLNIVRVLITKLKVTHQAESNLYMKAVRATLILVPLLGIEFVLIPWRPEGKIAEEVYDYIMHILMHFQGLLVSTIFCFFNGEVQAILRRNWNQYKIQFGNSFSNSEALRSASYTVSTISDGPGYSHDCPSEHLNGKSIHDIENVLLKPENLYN
# adrenomedullin receptor (Homo sapiens, UniProt O60895+Q16602), sequence (O60895 43-175): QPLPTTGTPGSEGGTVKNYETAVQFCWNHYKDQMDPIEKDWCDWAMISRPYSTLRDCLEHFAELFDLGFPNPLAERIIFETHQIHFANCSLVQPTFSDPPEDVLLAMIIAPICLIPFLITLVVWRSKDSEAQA
smiles,measurement,setting,value
CSCC[C@H](NC(=O)[C@H](CC(C)C)NC(=O)[C@H](CCC(N)=O)NC(=O)[C@H](Cc1c[nH]c2ccccc12)NC(=O)[C@H](CC(C)C)NC(=O)[C@H](CCCNC(=N)N)NC(=O)[C@H](Cc1c[nH]cn1)NC(=O)[C@H](CO)NC(=O)[C@H](CC(C)C)NC(=O)[C@H](CC(N)=O)NC(=O)[C@H](CCC(N)=O)NC(=O)[C@@H](NC(=O)[C@H](CCC(N)=O)NC(=O)[C@@H]1CSSC[C@H](NC(=O)CNC(=O)[C@@H](NC(=O)[C@H](CCCNC(=N)N)NC(=O)[C@H](CC(C)C)NC(=O)[C@H](CC(C)C)NC(=O)[C@H](CCC(N)=O)NC(=O)[C@H](C)NC(=O)[C@H](CCC(N)=O)NC(=O)[C@@H](N)[C@@H](C)O)C(C)C)C(=O)N[C@@H](C(C)C)C(=O)N[C@@H](CC(C)C)C(=O)NCC(=O)N[C@@H]([C@@H](C)O)C(=O)N1)C(C)C)C(=O)NCC(=O)N1CCC[C@H]1C(=O)N[C@@H](C)C(=O)NCC(=O)N[C@@H](CCCNC(=N)N)C(=O)N[C@@H](CCC(N)=O)C(=O)N[C@@H](CC(=O)O)C(=O)N[C@@H](CO)C(=O)N[C@@H](C)C(=O)N1CCC[C@H]1C(=O)N[C@H](C(=O)N[C@@H](CC(=O)O)C(=O)N1CCC[C@H]1C(=O)N[C@@H](CO)C(=O)N[C@@H](CO)C(=O)N1CCC[C@H]1C(=O)N[C@@H](Cc1c[nH]cn1)C(=O)N[C@@H](CO)C(=O)N[C@@H](Cc1ccc(O)cc1)C(N)=O)C(C)C [SEQ ID NO: 1],"rank order of potency, displacement of bound amylin",amylin receptors,amylin >CGRP>AFP-6 >>adrenomedullin>calcitonin
same,profile over all three cardiovascular parameters,rats,profile more amylin-like than adrenomedullin like
same,"ED50, decrease of plasma ionized calcium",[1],0.025 mg/kg
same,binding at the adrenomedullin receptor,adrenomedullin receptor [2],1 to 5 nM
same,increase of cAMP levels,"adrenomedullin receptor [3]; HUVECs, 1 μM and 10 nM",active in increasing cAMP levels
same,rank order of potency in HUVECs,"adrenomedullin receptor [3]; cAMP, FIG. 9",adrenomedullin >AFP-6>>CGRP alpha
